The text below walks through data of ChEMBL document CHEMBL1201862, “PubChem BioAssay data set” (2004).

Calls of active or inactive are those of the source.

The AC50 is the midpoint of the concentration-response curve, whichever way the signal moves. One may read the EC50 as the concentration that produces a half-maximal response.

In test [1] the target is Cyclin-dependent kinase 5/CDK5 activator 1 (Homo sapiens, UniProt Q00535). Description: CDK5-p25 kinase inhibitors, specificity check, dose response, selectivity assay for GSK-3 alpha inhibitor project, biochemical, microfluidic mobility shift, dry powder (AID 588430).
Test [2] concerns the target Glycogen synthase kinase-3 alpha (Homo sapiens, UniProt P49840). Description: Inhibition of Human GSK-3 alpha Activity Measured in Biochemical System Using Microfluidics - 2063-06_Inhibitor_Dose_DryPowder_Activity_Set2. [Related pubchem assays (depositor defined):AID2709].
Test [3] deals with Glycogen synthase kinase-3 beta (Homo sapiens, UniProt P49841). The test can be described thus: Inhibition of Human GSK-3 beta Activity Measured in Biochemical System Using Microfluidics - 2063-05_Inhibitor_Dose_DryPowder_Activity_Set2. [Related pubchem assays (depositor defined):AID2709].
Test [4] deals with 72 kDa type IV collagenase (Homo sapiens, UniProt P08253). Description: Dose Response validation of uHTS RPN11 inhibitor hits using a MMP-2 Fluorescence assay. Format: functional.
For test [5], the target named is Prothrombin (Bos taurus, UniProt P00735). Description: thrombin inhibition, dose response, biochemical, fluorescence polarization, uHTS hits (AID 602369). Type of test: functional.
Test [6] addresses 26S proteasome non-ATPase regulatory subunit 14 (Homo sapiens, UniProt O00487). Description: inhibition of proteasome subunit RPN11 – biochemical, fluorescence polarization, uHTS hits, confirmation (AID 602368). Format: functional.
Test [7] has as its system Candida albicans. The test can be described thus: growth inhibition of azole-resistant C. albicans, dose response, CaCi-8 strain, Alamar Blue, dry powder, set 3 (AID 488905). Format: functional, organism-based. Background: The colour change of resazurin is a common sign of viable cells or microbes.
In test [8] the test system is Candida albicans. Description: reversal of fluconazole resistance in C. albicans, dose response, CaCi-2 strain, Alamar Blue, dry powder, set 3 (AID 488907). Type of test: functional, organism-based.
Test [9] deals with CHO-K1. Description: Counterscreen for antagonists of the orexin 1 receptor (OX1R; HCRTR1): Homogeneous time resolved fluorescence (HTRF)-based cell-based dose response assay to identify antagonists of the parental CHO-K1 cell line. [Related pubchem assays (depositor defined):AID434989, AID435008, AID463079, AID485270, AID492963, AID492964, AID492965, AID493232, AID504699, AID504701]. Format: functional. The conditions noted are these: Cricetulus griseus. (A counterscreen serves to expose hits that act by an unwanted route or on another target.)

Test [10] concerns the target T1, Polyadenylate-binding protein 1 (Homo sapiens, UniProt P11940). The test can be described thus: PABP1 MLLE–PAM2 interaction inhibitors, dose response, miRNA deadenylation inhibitor project, biochemical, fluorescence polarization, Cy5-PAM2 peptide, secondary (AID 602260). The conditions noted are these: read-out: IC50_Mean. Type of test: functional. A general note: Fluorescence polarisation rises when a labelled molecule tumbles more slowly, as on binding a larger partner.

In test [11] the target is T2, Orexin receptor type 2 (Homo sapiens, UniProt O43614). The test can be described thus: Counterscreen assay for antagonists of the orexin 1 receptor (OX1R; HCRTR1): Fluorescence-based cell-based dose response assay for antagonists of the orexin 2 receptor (OX2R; HCRTR2), run by assay provider. Format: functional.
Test [12] deals with T1, Polyadenylate-binding protein 1. Description: PABP1 MLLE–PAM2 binding inhibitor potency, dose response, biochemical, fluorescence polarization, FITC-PAM2 peptide (AID 602259). Type of test: functional. Conditions: read-out: IC50_Mean.
Test [13] deals with T2, Orexin receptor type 2. Description: Counterscreen assay for antagonists of the orexin 1 receptor (OX1R; HCRTR1): Homogeneous Time Resolved Fluorescence (HTRF)-based cell-based dose response assay for antagonists of the orexin 2 receptor (OX2R; HCRTR2), run by assay provider. Type of test: functional.
In test [14] the target is T3, Orexin/Hypocretin receptor type 1 (Homo sapiens, UniProt O43613).
T3 sequence (O43613 whole entry): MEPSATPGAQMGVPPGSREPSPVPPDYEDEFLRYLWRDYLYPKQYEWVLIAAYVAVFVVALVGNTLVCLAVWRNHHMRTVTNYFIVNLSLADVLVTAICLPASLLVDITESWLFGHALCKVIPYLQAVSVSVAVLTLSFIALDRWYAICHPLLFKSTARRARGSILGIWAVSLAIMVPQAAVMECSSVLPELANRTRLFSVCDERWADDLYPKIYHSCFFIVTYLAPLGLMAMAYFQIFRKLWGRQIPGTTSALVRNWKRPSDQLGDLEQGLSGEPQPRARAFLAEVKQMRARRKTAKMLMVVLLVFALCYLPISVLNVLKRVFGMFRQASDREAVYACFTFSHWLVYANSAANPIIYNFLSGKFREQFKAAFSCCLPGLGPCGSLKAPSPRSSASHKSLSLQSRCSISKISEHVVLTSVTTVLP
Description: Homogeneous Time Resolved Fluorescence (HTRF)-based cell-based high throughput dose response assay for antagonists of the orexin 1 receptor (OX1R; HCRTR1). [Related pubchem assays (depositor defined):AID434989, AID435008, AID463079, AID485270, AID492963, AID492964, AID492965, AID493232, AID504717, AID504718]. Format: functional.

A short description of test [15]: Counterscreen for antagonists of the orexin 1 receptor (OX1R; HCRTR1): Fluorescence-based cell-based high throughput dose response assay to identify antagonists of the parental CHO cell line. [Related pubchem assays (depositor defined):AID434989, AID435008, AID463079, AID485270, AID492963, AID492964, AID492965, AID493232, AID504699, AID504701]. Format: functional.

Test [16] concerns the target T3, Orexin/Hypocretin receptor type 1. The test can be described thus: Fluorescence-based cell-based high throughput dose response assay for antagonists of the orexin 1 receptor (OX1R; HCRTR1). [Related pubchem assays (depositor defined):AID434989, AID435008, AID463079, AID485270, AID492963, AID492964, AID492965, AID493232, AID504717, AID504718]. Type of test: functional.

The target in test [17] is Cyclin-dependent kinase 2 (Homo sapiens, UniProt P24941). Description: CDK2 kinase inhibitors, off-target check, dose response, selectivity assay for Dyrk1A inhibitor project, biochemical, cherry-picked samples (AID 602127).
The target in test [18] is Dual specificity protein kinase CLK1 (Homo sapiens, UniProt P49759). Description: CLK1 kinase inhibitors, off-target check, dose response, selectivity assay for Dyrk1A inhibitor project, biochemical, cherry-picked samples (AID 588811).
In test [19] the target is T4, Sphingosine 1-phosphate receptor 2 (Homo sapiens, UniProt O95136). Description: Late-stage fluorescence-based dose-response cell-based counterscreen assay to identify agonists of the Sphingosine 1-Phosphate Receptor 3 (S1P3): Sphingosine 1-Phosphate Receptor 2 (S1P2) agonist assay. Type of test: functional.
In test [20] the target is Sphingosine 1-phosphate receptor 4 (Homo sapiens, UniProt O95977). The test can be described thus: Late-stage fluorescence-based dose-response cell-based counterscreen assay to identify agonists of the Sphingosine 1-Phosphate Receptor 3 (S1P3): Sphingosine 1-Phosphate Receptor 4 (S1P4) agonist assay. Type of test: functional.
The target in test [21] is DNA dC->dU-editing enzyme APOBEC-3A (Homo sapiens, UniProt P31941). The test can be described thus: SAR analysis of small molecule inhibitors of APOBEC3A DNA Deaminase via a fluorescence-based single-stranded DNA deaminase assay. Type of test: functional. The conditions noted are these: read-out: IC50_Mean.
For test [22], the target named is DNA dC->dU-editing enzyme APOBEC-3G (Homo sapiens, UniProt Q9HC16). The test can be described thus: APOBEC3G deaminase inhibitors, SAR follow-up, biochemical, fluorescence, single-stranded DNA substrate (AID 602136). Format: functional. The conditions noted are these: read-out: IC50_Mean.
Test [23] addresses Sphingosine 1-phosphate receptor 5 (Homo sapiens, UniProt Q9H228). Description: S1P5 receptor agonists, human, late-stage follow-up, counter-screen for S1P4 agonist project, cell-based, fluorescence, set 2 (AID 504867). Format: functional.
Test [24] deals with T4, Sphingosine 1-phosphate receptor 2. Description: S1P2 receptor agonists, human, late-stage follow-up, counter-screen for S1P4 agonist project, cell-based, fluorescence, set 2 (AID 504873). Type of test: functional.
Test [25] concerns the target Sphingosine 1-phosphate receptor 3 (Homo sapiens, UniProt Q99500). The test can be described thus: Late-stage fluorescence-based dose-response cell-based counterscreen assay to identify agonists of the Sphingosine 1-Phosphate Receptor 4 (S1P4): Sphingosine 1-Phosphate Receptor 3 (S1P3) agonist assay Set 2. Format: functional.
The target in test [26] is Sphingosine 1-phosphate receptor 1 (Homo sapiens, UniProt P21453). Description: Late-stage fluorescence-based dose-response cell-based counterscreen assay to identify agonists of the Sphingosine 1-Phosphate Receptor 4 (S1P4): Sphingosine 1-Phosphate Receptor 1 (S1P1) agonist assay Set 2. Format: functional.
Sequence of Sphingosine 1-phosphate receptor 1 (P21453 whole entry): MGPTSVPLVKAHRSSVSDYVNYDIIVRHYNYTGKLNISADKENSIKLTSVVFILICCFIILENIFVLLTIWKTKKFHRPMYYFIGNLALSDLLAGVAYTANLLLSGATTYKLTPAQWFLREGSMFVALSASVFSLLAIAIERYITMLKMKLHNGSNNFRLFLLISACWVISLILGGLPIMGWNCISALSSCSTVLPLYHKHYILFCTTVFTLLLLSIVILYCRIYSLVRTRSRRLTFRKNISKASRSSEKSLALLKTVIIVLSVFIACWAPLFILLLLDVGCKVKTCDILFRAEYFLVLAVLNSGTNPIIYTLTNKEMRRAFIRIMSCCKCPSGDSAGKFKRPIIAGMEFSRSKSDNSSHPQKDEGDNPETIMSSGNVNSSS

T2 sequence (O43614 whole entry): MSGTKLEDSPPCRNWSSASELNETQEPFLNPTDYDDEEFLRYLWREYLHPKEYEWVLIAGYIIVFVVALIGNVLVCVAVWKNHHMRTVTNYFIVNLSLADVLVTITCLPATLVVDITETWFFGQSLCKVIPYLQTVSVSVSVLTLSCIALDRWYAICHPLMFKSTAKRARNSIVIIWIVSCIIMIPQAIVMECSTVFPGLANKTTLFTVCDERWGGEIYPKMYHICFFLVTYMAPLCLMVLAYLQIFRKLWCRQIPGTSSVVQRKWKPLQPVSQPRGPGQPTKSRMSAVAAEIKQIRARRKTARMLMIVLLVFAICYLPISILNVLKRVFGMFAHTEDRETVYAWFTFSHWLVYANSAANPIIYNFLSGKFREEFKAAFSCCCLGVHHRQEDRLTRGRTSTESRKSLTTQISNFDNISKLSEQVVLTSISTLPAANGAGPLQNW
T1 sequence (P11940 whole entry): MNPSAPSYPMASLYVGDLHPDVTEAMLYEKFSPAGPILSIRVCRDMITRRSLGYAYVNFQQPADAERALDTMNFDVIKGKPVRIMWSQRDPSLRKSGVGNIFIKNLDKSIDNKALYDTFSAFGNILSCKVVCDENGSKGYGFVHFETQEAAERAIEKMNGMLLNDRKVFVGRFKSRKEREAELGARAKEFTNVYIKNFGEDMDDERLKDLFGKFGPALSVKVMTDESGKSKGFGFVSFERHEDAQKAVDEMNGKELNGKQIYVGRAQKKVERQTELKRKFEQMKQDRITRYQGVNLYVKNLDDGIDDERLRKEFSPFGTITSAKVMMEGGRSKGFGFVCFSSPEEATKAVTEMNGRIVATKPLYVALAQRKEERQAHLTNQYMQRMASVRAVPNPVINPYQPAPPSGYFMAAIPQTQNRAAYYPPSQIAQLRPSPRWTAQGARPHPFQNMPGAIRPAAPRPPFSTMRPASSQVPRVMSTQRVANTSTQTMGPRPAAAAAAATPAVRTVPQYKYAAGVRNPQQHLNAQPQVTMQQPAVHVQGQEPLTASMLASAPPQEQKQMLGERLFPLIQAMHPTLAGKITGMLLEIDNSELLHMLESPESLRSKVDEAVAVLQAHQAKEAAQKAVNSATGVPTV
T4 sequence (O95136 whole entry): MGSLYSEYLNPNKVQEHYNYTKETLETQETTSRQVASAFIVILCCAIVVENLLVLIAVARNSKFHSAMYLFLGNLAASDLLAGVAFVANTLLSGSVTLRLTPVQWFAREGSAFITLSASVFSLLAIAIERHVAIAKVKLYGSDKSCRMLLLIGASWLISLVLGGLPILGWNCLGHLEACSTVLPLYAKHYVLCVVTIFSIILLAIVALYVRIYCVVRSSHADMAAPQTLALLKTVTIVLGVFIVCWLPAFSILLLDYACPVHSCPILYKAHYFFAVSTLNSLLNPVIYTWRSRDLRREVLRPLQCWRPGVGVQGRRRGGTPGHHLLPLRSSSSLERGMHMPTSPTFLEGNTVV
Sequence of Glycogen synthase kinase-3 alpha (P49840 whole entry): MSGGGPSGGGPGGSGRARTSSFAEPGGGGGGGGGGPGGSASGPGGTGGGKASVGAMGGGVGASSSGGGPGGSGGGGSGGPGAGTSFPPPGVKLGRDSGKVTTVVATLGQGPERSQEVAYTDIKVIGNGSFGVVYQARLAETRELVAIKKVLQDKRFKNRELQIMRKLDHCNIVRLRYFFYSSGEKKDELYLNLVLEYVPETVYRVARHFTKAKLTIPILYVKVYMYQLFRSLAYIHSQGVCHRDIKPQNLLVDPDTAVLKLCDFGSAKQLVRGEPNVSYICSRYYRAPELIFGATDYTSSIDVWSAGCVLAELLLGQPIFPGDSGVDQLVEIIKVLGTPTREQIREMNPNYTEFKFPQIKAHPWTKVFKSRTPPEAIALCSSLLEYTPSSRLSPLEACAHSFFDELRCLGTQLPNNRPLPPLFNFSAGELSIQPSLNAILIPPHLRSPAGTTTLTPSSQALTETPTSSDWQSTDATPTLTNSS
Sequence of Glycogen synthase kinase-3 beta (P49841 whole entry): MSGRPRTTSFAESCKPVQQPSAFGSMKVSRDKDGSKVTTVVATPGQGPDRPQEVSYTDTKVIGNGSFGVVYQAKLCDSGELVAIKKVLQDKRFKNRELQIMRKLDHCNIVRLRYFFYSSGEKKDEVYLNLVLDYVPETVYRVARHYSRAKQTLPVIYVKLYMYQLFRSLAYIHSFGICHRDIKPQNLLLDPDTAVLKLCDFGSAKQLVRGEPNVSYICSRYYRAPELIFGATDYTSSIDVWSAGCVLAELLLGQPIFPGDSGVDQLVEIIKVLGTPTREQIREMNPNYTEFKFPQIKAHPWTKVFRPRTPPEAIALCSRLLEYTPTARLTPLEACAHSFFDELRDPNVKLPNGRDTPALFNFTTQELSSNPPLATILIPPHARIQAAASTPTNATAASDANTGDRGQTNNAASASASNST
Sequence of DNA dC->dU-editing enzyme APOBEC-3G (Q9HC16 whole entry): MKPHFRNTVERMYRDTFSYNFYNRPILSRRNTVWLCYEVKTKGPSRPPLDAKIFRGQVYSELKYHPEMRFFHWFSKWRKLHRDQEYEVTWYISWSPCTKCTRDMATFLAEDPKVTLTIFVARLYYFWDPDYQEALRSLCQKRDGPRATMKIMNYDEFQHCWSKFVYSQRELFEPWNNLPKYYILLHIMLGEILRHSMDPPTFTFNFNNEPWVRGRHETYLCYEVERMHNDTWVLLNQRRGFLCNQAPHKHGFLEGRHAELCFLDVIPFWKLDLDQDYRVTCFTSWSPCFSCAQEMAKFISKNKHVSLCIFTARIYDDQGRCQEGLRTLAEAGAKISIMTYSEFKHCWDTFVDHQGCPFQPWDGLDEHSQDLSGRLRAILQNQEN
Sequence of DNA dC->dU-editing enzyme APOBEC-3A (P31941 whole entry): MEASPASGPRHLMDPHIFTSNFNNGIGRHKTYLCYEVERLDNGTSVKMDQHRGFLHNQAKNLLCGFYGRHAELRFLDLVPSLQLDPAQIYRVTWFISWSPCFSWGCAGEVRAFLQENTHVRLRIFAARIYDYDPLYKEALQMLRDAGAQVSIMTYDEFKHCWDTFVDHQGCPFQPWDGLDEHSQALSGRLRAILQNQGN
Sequence of Dual specificity protein kinase CLK1 (P49759 whole entry): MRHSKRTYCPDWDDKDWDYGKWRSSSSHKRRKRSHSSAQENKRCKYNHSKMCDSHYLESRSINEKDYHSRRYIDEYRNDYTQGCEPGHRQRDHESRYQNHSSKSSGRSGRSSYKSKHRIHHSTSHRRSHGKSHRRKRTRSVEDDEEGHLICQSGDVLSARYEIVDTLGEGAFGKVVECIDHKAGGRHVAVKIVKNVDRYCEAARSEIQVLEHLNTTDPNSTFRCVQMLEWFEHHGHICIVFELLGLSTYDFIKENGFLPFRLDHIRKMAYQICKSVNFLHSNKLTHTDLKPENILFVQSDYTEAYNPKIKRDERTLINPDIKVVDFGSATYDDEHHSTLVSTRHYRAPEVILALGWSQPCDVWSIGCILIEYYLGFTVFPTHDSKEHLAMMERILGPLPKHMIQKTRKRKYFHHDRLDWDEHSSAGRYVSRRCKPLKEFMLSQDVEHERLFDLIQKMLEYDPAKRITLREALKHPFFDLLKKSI
Sequence of Sphingosine 1-phosphate receptor 5 (Q9H228 whole entry): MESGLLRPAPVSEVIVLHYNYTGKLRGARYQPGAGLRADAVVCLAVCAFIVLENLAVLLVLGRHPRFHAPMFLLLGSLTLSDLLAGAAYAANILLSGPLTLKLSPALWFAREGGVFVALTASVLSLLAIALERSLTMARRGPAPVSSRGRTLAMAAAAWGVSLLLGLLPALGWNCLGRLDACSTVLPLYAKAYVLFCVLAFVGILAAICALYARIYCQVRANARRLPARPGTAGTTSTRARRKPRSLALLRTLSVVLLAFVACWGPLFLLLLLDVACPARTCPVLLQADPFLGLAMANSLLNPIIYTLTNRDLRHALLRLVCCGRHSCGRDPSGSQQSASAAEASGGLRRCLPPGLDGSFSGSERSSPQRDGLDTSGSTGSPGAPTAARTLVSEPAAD
Sequence of Cyclin-dependent kinase 5/CDK5 activator 1 (Q00535 whole entry): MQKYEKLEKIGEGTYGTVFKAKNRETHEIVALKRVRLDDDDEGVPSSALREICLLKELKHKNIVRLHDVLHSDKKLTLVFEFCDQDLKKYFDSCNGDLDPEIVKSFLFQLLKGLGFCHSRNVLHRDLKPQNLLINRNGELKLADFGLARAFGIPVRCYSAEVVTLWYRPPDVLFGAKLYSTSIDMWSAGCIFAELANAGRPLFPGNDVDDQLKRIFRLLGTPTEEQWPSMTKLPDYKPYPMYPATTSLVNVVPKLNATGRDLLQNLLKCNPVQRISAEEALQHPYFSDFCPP
Sequence of Cyclin-dependent kinase 5/CDK5 activator 1 (Q15078 whole entry, further chain): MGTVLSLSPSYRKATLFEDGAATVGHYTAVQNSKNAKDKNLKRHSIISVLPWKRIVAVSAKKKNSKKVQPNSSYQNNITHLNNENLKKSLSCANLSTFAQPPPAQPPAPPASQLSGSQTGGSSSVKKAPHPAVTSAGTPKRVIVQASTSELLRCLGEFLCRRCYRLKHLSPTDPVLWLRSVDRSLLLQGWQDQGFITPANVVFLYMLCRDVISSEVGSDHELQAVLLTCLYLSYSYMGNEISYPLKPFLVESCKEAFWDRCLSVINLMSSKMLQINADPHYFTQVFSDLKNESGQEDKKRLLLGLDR

For `O=C(CSc1ccc2nnc(-c3cccs3)n2n1)N1CCCC1`, the results for the AC50 in test [1], in [2] and in test [3] were 78.4 µM (active), 2.08 µM (active) and 0.742 µM (active), respectively.

Turning to `O=C1NC(=O)N(c2cccc3ccccc23)C(=O)/C1=C\NN1CCCCC1c1cccnc1` (stereo unspecified), the IC50 in [4] is > 100 µM (inactive); in test [5], 59.6 µM (active); in test [6], 27.4 µM (active).

In the case of `Cc1ccc(C(=O)N2CCN(c3ccccn3)CC2)cc1`, the AC50 in [7] was 10.4 µM (active); in test [8], 0.0979 µM (active).

On to `CCN1C(=O)/C(=C2/SC(C)=C(C)N2CC)SC1=S`, for which the IC50 in test [9] is > 66.2 µM (inactive); in test [10], > 66 µM (inactive); in test [11], > 88.8 µM (inactive); in test [12], > 66 µM (inactive); in [13] it was > 50 µM (inactive); in test [14], 3.15 µM (active). The IC50 in test [15] was > 49.8 µM (inactive); in test [16], 14.7 µM (inactive).

For the molecule `c1cncc(CNc2nccc(-c3ccc4[nH]ncc4c3)n2)c1`, the AC50 was 3.52 µM (active) in [17] and 0.0402 µM (active) in test [18].

For the molecule `O=C(c1cc(C2CC2)on1)N(C1CCCCCC1)C1CCCC1`, the EC50 in test [19] and in [20] was > 50 µM (inactive) throughout.

As to `CN(CC1CCCN(CCc2ccc(Cl)cc2)C1)C(=O)c1cc2ncccn2n1` (stereo unspecified), the IC50 in test [21] and in test [22] was > 99 µM (inactive) throughout.

Take `C/N=C1/S/C(=C/c2cc(C)n(-c3ccc(F)cc3F)c2C)C(=O)N1C`: the EC50 was > 25 µM (inactive) in test [23], > 25 µM (inactive) in [24], > 25 µM (inactive) in test [25] and 4.47 µM (active) in test [26].
